Where a name gives a salt, the structure may show the parent alone. Read-outs that look alike come from different tables or passages of the source.

One data set deals with T1, PI3Kα (Homo sapiens, UniProt P42336).
T1 construct: purchased Invitrogen, or BPS Bioscience Inc., or SignalChem PV4788 / 40620 / P27-18H
Description: Kinase enzyme assay (ADP-Glo), PI3Kα. Particulars: read-out: In Vitro Enzymatic IC50 PI3Kα. The data set is classed as biochemical. On the technique in general: ADP-Glo turns the ADP formed in a reaction into a luminescent signal.

Data set [1] concerns the target HDAC (HeLa nuclear extracts). Description: HDAC enzyme assay, HeLa nuclear extracts. Particulars: read-out: In Vitro Enzymatic IC50 HDAC (HeLa).
In another data set the target is T2, p110α(E545K)/p85α (Homo sapiens, UniProt P42336, E545K).
T2 construct: purchased SignalChem P27-15H
T2 sequence (P42336 whole entry E545K): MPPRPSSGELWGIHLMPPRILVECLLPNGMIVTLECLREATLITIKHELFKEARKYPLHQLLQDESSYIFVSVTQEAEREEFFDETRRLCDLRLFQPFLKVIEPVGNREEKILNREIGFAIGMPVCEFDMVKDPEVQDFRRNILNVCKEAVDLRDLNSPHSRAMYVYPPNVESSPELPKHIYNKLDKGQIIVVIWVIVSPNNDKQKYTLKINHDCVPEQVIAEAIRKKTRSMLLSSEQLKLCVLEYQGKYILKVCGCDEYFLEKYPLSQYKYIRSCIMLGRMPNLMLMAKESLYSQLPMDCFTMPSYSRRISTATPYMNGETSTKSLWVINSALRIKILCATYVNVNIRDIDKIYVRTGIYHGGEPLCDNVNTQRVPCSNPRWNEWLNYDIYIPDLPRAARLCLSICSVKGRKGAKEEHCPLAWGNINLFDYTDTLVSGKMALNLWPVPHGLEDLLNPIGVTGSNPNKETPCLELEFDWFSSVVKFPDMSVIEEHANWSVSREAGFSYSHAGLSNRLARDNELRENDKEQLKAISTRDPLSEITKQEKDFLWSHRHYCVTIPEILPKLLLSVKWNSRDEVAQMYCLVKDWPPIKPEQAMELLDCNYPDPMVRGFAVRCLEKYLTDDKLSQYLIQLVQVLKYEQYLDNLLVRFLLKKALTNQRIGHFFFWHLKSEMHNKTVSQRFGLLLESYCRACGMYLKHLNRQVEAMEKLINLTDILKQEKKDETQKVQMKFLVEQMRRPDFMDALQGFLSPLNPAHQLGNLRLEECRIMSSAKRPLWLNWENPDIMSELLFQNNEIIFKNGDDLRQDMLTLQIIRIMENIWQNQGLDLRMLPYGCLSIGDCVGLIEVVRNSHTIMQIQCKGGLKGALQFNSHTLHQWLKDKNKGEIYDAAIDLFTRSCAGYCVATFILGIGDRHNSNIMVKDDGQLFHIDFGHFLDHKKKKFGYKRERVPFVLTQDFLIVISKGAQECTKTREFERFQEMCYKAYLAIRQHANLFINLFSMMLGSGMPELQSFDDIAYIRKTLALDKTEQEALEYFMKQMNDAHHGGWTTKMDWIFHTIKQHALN
T2 sequence (P27986 whole entry partner): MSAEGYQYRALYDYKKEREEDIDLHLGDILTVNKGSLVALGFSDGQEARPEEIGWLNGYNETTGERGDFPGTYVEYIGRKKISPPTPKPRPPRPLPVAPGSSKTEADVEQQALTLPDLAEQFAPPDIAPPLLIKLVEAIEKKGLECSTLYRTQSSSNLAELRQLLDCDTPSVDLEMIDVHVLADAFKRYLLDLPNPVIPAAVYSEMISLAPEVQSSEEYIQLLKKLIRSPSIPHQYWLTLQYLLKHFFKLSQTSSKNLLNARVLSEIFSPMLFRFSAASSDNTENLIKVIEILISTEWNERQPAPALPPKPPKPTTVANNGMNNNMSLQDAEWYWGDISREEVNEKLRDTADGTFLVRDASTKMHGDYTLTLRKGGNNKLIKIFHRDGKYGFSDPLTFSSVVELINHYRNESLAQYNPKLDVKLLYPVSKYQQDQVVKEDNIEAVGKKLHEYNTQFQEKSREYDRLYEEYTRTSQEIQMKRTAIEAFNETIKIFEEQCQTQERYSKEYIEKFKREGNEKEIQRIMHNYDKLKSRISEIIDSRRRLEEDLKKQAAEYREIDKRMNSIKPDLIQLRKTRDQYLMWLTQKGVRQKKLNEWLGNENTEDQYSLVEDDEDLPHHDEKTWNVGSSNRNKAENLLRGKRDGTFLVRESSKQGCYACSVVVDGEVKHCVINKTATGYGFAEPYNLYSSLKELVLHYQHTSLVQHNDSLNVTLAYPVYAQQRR
The data set can be described thus: Kinase enzyme assay (ADP-Glo), PI3Kα (E545K). The data set is classed as biochemical. Particulars: read-out: In Vitro Enzymatic IC50 PI3Kα (E545K).

The next data set deals with T3, PI3Kβ (Homo sapiens, UniProt P42338).
T3 construct: purchased SignalChem or BPS P28-10H / 40622
T3 sequence (P42338 whole entry): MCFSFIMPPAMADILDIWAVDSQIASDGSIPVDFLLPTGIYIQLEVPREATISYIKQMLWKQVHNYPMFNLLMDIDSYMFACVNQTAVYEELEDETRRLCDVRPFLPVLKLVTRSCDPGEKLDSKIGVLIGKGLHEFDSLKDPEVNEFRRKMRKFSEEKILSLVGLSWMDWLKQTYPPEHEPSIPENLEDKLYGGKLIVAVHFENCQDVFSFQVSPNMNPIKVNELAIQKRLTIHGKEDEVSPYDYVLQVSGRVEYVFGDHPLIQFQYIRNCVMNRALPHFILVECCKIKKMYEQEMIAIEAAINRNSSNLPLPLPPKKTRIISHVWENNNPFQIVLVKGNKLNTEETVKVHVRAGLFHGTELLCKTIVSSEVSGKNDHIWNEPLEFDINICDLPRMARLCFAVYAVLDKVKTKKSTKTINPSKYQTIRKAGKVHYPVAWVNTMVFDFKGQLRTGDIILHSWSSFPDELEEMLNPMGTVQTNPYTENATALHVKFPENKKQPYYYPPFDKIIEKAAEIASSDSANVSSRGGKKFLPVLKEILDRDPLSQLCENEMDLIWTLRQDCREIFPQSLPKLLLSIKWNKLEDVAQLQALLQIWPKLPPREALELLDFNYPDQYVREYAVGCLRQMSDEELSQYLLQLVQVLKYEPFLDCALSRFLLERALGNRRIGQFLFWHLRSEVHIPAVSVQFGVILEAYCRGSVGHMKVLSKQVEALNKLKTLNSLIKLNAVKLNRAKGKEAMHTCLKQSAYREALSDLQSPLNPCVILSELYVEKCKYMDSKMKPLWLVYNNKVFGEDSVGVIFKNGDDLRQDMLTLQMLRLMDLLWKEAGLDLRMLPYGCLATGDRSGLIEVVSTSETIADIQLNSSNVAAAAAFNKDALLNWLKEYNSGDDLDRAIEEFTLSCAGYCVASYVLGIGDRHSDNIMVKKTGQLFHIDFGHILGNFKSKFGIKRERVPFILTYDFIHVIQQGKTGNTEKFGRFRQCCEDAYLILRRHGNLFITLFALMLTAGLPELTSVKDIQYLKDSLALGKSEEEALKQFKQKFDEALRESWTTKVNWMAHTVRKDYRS
T3 sequence (P27986 whole entry partner): as the sequence (P27986 whole entry partner) above
Description: Kinase enzyme assay (ADP-Glo), PI3Kβ. The data set is classed as biochemical. Particulars: read-out: In Vitro Enzymatic IC50 PI3Kβ.

A further data set deals with T4, p110α(H1047R)/p85α (Homo sapiens, UniProt P42336, H1047R).
T4 construct: purchased BPS 40641
T4 sequence (P42336 whole entry H1047R): as the sequence (P42336 whole entry E545K) above, with K545E, H1047R counted along it
T4 sequence (P27986 whole entry partner): as the sequence (P27986 whole entry partner) above
Description: Kinase enzyme assay (ADP-Glo), PI3Kα (H1047R). The data set is classed as biochemical. Particulars: read-out: In Vitro Enzymatic IC50 PI3Kα (H1047R).

The target in a further data set is HDAC1 (Homo sapiens, UniProt Q13547). Description: HDAC enzyme assay, recombinant HDAC1.
HDAC1, sequence (Q13547 whole entry): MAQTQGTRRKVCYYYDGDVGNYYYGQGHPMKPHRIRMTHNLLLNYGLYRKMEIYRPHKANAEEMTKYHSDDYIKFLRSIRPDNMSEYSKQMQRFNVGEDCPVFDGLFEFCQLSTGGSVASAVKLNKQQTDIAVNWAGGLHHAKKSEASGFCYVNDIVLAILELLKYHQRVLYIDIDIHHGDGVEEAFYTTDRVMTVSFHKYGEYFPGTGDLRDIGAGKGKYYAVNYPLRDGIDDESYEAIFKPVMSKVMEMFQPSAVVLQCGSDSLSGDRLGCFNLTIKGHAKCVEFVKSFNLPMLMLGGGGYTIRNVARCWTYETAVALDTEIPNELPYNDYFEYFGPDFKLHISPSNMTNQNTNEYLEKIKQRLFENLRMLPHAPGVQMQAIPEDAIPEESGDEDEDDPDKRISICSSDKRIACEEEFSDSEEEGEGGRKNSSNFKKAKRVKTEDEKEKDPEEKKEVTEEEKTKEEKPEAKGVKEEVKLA
The target in a further data set is T5, HDAC6 (Homo sapiens, UniProt Q9UBN7).
T5 sequence (Q9UBN7 1-1215): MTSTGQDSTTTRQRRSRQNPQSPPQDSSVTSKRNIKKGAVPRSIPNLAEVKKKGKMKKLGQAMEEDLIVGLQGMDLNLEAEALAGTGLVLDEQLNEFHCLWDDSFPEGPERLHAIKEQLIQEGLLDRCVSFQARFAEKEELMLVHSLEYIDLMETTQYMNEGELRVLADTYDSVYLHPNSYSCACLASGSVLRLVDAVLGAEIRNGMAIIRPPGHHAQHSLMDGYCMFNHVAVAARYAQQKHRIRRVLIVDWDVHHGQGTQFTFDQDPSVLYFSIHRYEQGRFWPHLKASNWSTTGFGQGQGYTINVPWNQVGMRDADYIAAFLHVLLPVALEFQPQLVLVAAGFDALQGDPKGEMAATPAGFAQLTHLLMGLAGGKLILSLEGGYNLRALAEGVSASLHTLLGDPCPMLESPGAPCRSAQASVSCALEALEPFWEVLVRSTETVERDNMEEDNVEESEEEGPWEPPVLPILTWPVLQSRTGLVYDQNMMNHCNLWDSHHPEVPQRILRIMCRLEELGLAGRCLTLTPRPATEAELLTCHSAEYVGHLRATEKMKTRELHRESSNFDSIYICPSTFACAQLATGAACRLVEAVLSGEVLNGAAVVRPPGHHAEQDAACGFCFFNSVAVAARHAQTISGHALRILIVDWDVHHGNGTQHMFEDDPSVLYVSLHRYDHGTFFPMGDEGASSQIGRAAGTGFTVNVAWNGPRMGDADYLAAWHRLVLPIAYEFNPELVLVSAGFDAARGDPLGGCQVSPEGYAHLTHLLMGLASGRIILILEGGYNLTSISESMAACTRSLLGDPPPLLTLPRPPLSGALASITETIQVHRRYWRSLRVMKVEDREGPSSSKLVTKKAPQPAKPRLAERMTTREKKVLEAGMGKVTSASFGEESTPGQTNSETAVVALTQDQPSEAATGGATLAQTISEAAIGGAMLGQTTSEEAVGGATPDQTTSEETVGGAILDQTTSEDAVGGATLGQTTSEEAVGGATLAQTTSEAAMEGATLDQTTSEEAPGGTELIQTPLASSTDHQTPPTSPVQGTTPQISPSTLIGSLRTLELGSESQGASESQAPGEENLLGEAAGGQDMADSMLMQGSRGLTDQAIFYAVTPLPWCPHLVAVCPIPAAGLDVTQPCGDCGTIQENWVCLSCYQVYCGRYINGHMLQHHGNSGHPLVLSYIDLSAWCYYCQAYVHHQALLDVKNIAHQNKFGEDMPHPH
The data set can be described thus: HDAC enzyme assay, recombinant HDAC6.

The subject of another data set is Raji. Description: Anti-proliferative assay (cellular IC50), Raji. Particulars: Homo sapiens, read-out: In Vitro Cellular IC50 Raji.
The next data set has as its system A549. The data set can be described thus: Anti-proliferative assay (cellular IC50), A549. Particulars: Homo sapiens, A549, read-out: In Vitro Cellular IC50 A549.
Another data set relates to Pfeiffer. Description: Anti-proliferative assay (cellular IC50), Pfeiffer. Particulars: Homo sapiens, read-out: In Vitro Cellular IC50 Pfeiffer.
For a further data set, the system named is MOLT-4. The data set can be described thus: Anti-proliferative assay (cellular IC50), MOLT-4. Particulars: Homo sapiens.
The subject of the next data set is HEL9217. Description: Anti-proliferative assay (cellular IC50), HEL9217. Particulars: Homo sapiens, HEL 92.1.7, read-out: In Vitro Cellular IC50 HEL9217.
The next data set deals with A-431. The data set can be described thus: Anti-proliferative assay (cellular IC50), A-431. Particulars: Homo sapiens, A-431, read-out: In Vitro Cellular IC50 A-431.
The next data set concerns HCT 116. Description: cells. Particulars: Homo sapiens.
For a further data set, the system named is MCF7. The data set can be described thus: Anti-proliferative assay (cellular IC50), MCF7. Particulars: Homo sapiens.
The test system of another data set is HCCLM3. The data set can be described thus: Anti-proliferative assay (cellular IC50), HCCLM3. Particulars: Homo sapiens, HCCLM3, read-out: In Vitro Cellular IC50 HCCLM3.
The subject of another data set is Daudi. The data set can be described thus: Anti-proliferative assay (cellular IC50), Daudi. Particulars: Homo sapiens, read-out: In Vitro Cellular IC50 Daudi.
The test system of a further data set is PLC/PRF/5. Description: cells. Particulars: Homo sapiens, PLC-PRF-5, read-out: In Vitro Cellular IC50 PLC/PRF/5.
A further data set concerns NCI-H460. The data set can be described thus: Anti-proliferative assay (cellular IC50), NCI-H460. Particulars: Homo sapiens, NCI-H460, read-out: In Vitro Cellular IC50 NCI-H460.
For a further data set, the system named is MV-4-11. The data set can be described thus: cells. Particulars: Homo sapiens.
In another data set the test system is SK-HEP1. The data set can be described thus: Anti-proliferative assay (cellular IC50), SK-HEP1. Particulars: Homo sapiens, SK-HEP1, read-out: In Vitro Cellular IC50 SK-HEP1.
The test system of another data set is 4T1. The data set can be described thus: cells. Particulars: Mus musculus, 4T1, read-out: In Vitro Cellular IC50 4T1.
The test system of another data set is U138MG. The data set can be described thus: Anti-proliferative assay (cellular IC50), U138MG. Particulars: Homo sapiens, U138-MG, read-out: In Vitro Cellular IC50 U138MG.
In a further data set the test system is NCI-H522. Description: Anti-proliferative assay (cellular IC50), NCI-H522. Particulars: Homo sapiens, NCI-H522, read-out: In Vitro Cellular IC50 NCI-H522.
Another data set relates to U87 MG. Description: Anti-proliferative assay (cellular IC50), U87 MG. Particulars: Homo sapiens, U-87 MG, read-out: In Vitro Cellular IC50 U87 MG.
The test system of a further data set is HuH-7. The data set can be described thus: Anti-proliferative assay (cellular IC50), HuH-7. Particulars: Homo sapiens, Huh-7, read-out: In Vitro Cellular IC50 HuH-7.
The test system of a further data set is HepG2. The data set can be described thus: Anti-proliferative assay (cellular IC50), HepG2. Particulars: Homo sapiens.
For data set [2], the system named is HepG2 xenograft. Particulars: HepG2, NCr nude mice, 98 mg/kg oral QD×5 per week, day 18.
Data set [3] has as its system HepG2 xenograft. An excerpt: In FIG. 26, Efficacy in CB17 scid mice HepG2 xenograft model is shown. […] Vehicle group has BW loss due to increasing tumor burden.

T1 sequence (P42336 whole entry): as the sequence (P42336 whole entry E545K) above, with K545E counted along it
T1 sequence (P27986 whole entry partner): as the sequence (P27986 whole entry partner) above

As for `CC(C)n1cnc2c(-c3cnc(N)nc3)nc(NCCCCCC(=O)NO)nc21` [compound 38, 6-((6-(2-aminopyrimidin-5-yl)-9-isopropyl-9H-purin-2-yl)amino)-N-hydroxyhexanamide], the IC50 on PI3Kα was 10 to 100 nM; in [1], < 10 nM; on p110α(E545K)/p85α it was 10 to 100 nM; at PI3Kβ, 100 to 1000 nM; at p110α(H1047R)/p85α, 10 to 100 nM; on HDAC1 it was < 10 nM. Besides, on HDAC6, the IC50 was < 10 nM.
As for `CC(C)n1cnc2c(N3CCOCC3)nc(-c3ccc(OCCCCCCC(=O)NO)cc3)nc21` [compound 81, N-hydroxy-7-(4-(9-isopropyl-6-morpholino-9H-purin-2-yl)phenoxy)heptanamide], the IC50 is 10 to 100 nM on PI3Kα; < 10 nM in data set [1]; 10 to 100 nM on p110α(E545K)/p85α; 100 to 1000 nM on PI3Kβ; 10 to 100 nM at p110α(H1047R)/p85α; < 10 nM at HDAC1. For the same molecule, the IC50 on HDAC6 is < 10 nM.
For `O=C(CCCOc1cccc(-c2nc(N3CCOCC3)nc3c2ncn3C2CCCC2)c1)NO` [compound 100, 4-(3-(9-cyclopentyl-2-morpholino-9H-purin-6-yl)phenoxy)-N-hydroxybutanamide], the IC50 is < 500 nM with Raji; < 500 nM with A549; < 500 nM in the data set with Pfeiffer; < 500 nM with MOLT-4 (MOLT-4, 72 h, read-out: In Vitro Cellular IC50 MOLT-4); < 500 nM in the data set with MOLT-4 (MOLT-4, read-out: In Vitro Cellular IC50 MOLT-4); < 500 nM with HEL9217. For the same molecule, the IC50 in the data set on A-431 was 500 to 2000 nM; in data set [1] it was 10 to 100 nM; in the data set with HCT 116 (HCT-116, 72 h, read-out: In Vitro Cellular IC50 HCT 116) it was < 500 nM; with HCT 116 (HCT-116, read-out: In Vitro Cellular IC50 HCT 116), < 500 nM; in the data set on MCF7 (MCF7, 72 h, read-out: In Vitro Cellular IC50 MCF7) it was < 500 nM; with MCF7 (MCF7, read-out: In Vitro Cellular IC50 MCF7) it was < 500 nM. In addition, the IC50 in the data set on HCCLM3 is 2000 to 10000 nM; in the data set on Daudi, < 500 nM; in the data set with PLC/PRF/5, 500 to 2000 nM; with NCI-H460, < 500 nM; with MV-4-11 (MV4-11, 72 h, read-out: In Vitro Cellular IC50 MV-4-11) it was < 500 nM; in the data set with MV-4-11 (MV4-11, read-out: In Vitro Cellular IC50 MV-4-11), < 500 nM. The IC50 in the data set on SK-HEP1 was 500 to 2000 nM; in the data set on 4T1, 500 to 2000 nM; in the data set on U138MG, 500 to 2000 nM; in the data set with NCI-H522, 500 to 2000 nM; in the data set with U87 MG it was 500 to 2000 nM; in the data set on HuH-7, < 500 nM. Also, the IC50 lay within 500 to 2000 nM with HepG2 (HepG2, 72 h, read-out: In Vitro Cellular IC50 HepG2) and 500 to 2000 nM with HepG2 (HepG2, read-out: In Vitro Cellular IC50 HepG2).
As for `CNC(=O)c1cc(Oc2ccc(NC(=O)Nc3ccc(Cl)c(C(F)(F)F)c3)cc2)ccn1` [sorafenib tosylate], the “Tumor growth inhibition (TGI)” value turned out to be 71% in the data set on HepG2 xenograft [2] and 98% in the data set on HepG2 xenograft [3] (HepG2, CB17 scid mice, 100 mg/kg QD×5×2 then 80 mg/kg QD×5×2 oral, day 26). The Tolerability result in the data set with HepG2 xenograft [3] (mouse, in vivo, po, 100 mg/kg) is on record as “not well tolerated”.

Source of the values: patent US9957270B2, “Fused pyrimidine-based hydroxamate derivatives” (Agency for Science, Technology and Research, priority 2014, dated 2018).
